Earlier results on two compounds are cited in PubChem BioAssay AID1259409 (Chemical Carcinogenesis Research Information System (CCRIS), 2018).

Structures are written as SMILES. Where a SMILES comes first, the peptide text is derived from it. The star is where a group is joined. Leuψ(CH2N)ThzNH2 = CC(C)C[C@@H](CN1CSC[C@H]1C(N)=O)N*; Hydrocinnamoyl = O=C(CCc1ccccc1)*

The test system of the data set is rodent chemically induced tumor inhibition, incidence and multiplicity. Kind of data set: CCRIS tumor inhibitor studies. Conditions: Dose [Inhibitor]: 0.

On to `CC(C)C[C@@H](CN1CSC[C@H]1C(N)=O)NC(=O)[C@H](Cc1cnc[nH]1)NC(=O)CNC(=O)[C@@H](NC(=O)[C@H](C)NC(=O)[C@H](Cc1c[nH]c2ccccc12)NC(=O)[C@H](CCC(N)=O)NC(=O)CCc1ccccc1)C(C)C` (Hydrocinnamoyl-QWAVGH-{Leuψ(CH2N)ThzNH2}), for which the “tumour outcome (control, treated, inhibition, significance)” value is recorded as 10/11 (91%), 7/11 (64%), 30%, not calculated (Carcinogen: N-NITROSOBIS(2-OXOPROPYL)AMINE, 60599-38-4, 20 UG/D FROM OSMOTIC PUMP FOR 2 MO, Route [Inhibitor]: SUBCUTANEOUS IMPLANT, Species: HAMSTER, Strain/Sex: SYRIAN/FEMALE, Target Tissue: Type of Lesion: PANCREAS: ADENOCARCINOMA, Promoter: NONE USED) and 11/13 (85%), 12/13 (92%), -8%, not calculated (Carcinogen: N-NITROSOBIS(2-OXOPROPYL)AMINE, 60599-38-4, 30 UG/D FOR 2 MO, Route [Inhibitor]: SUBCUTANEOUS, Species: HAMSTER, Strain/Sex: SYRIAN/FEMALE, Target Tissue: Type of Lesion: PANCREAS: ADENOCARCINOMA, Promoter: NONE USED).
In the case of `COc1cc(CNC(=O)CCCC/C=C/C(C)C)ccc1O`, the “tumour outcome (control, treated, inhibition, significance)” value by setting is: (Carcinogen: 7,12-DIMETHYLBENZ[A]ANTHRACENE, 57-97-6, 0.01% IN DIET BEGINNING 3 WK POST CARCINOGEN DOSE AND CONTINUING FOR 6 WK (STUDY DURATION: 9 WK), Route [Inhibitor]: ORAL, Species: MOUSE, Strain/Sex: SWISS/FEMALE, Target Tissue: Type of Lesion: LUNG: ADENOMA, Dose [Carcinogen]: 40 UG ONCE ADMINISTERED TO NEWBORN MICE, Promoter: NONE USED) 17/17 (100%), 20/22 (91%), 9%, not calculated; (Carcinogen: 7,12-DIMETHYLBENZ[A]ANTHRACENE, 57-97-6, 0.01% IN DIET BEGINNING 3 WK POST CARCINOGEN DOSE AND CONTINUING FOR 6 WK (STUDY DURATION: 9 WK), Route [Inhibitor]: ORAL, Species: MOUSE, Strain/Sex: SWISS/MALE, Target Tissue: Type of Lesion: LUNG: ADENOMA, Dose [Carcinogen]: 40 UG ONCE ADMINISTERED TO NEWBORN MICE, Promoter: NONE USED) 10/10 (100%), 23/24 (96%), 4%, not calculated; (Carcinogen: AZOXYMETHANE (25843-45-2), 500 PPM IN DIET FOR 4 WK, BEGINNING 1 WK BEFORE THE FIRST CARCINOGEN DOSE (STUDY DURATION: 38 WK), Route [Inhibitor]: ORAL, Species: RAT, Strain/Sex: F344/MALE, Target Tissue: Type of Lesion: LARGE INTESTINE: ADENOCARCINOMA, Dose [Carcinogen]: 15 MG/KG BW 1 INJECTION/WK FOR 3 WK, Promoter: NONE USED) 9/15 (60%), 4/17 (24%), 60%, p = 0.0407; (Carcinogen: AZOXYMETHANE (25843-45-2), 500 PPM IN DIET FOR 4 WK, BEGINNING 1 WK BEFORE THE FIRST CARCINOGEN DOSE (STUDY DURATION: 38 WK), Route [Inhibitor]: ORAL, Species: RAT, Strain/Sex: F344/MALE, Target Tissue: Type of Lesion: LARGE INTESTINE: ADENOMA, Dose [Carcinogen]: 15 MG/KG BW 1 INJECTIONS/WK FOR 3 WK, Promoter: NONE USED) 4/15 (27%), 1/17 (6%), 78%, not significant; (Carcinogen: AZOXYMETHANE (25843-45-2), 500 PPM IN DIET FOR 4 WK, BEGINNING 1 WK BEFORE THE FIRST CARCINOGEN DOSE (STUDY DURATION: 38 WK), Route [Inhibitor]: ORAL, Species: RAT, Strain/Sex: F344/MALE, Target Tissue: Type of Lesion: SMALL INTESTINE: ADENOCARCINOMA, Dose [Carcinogen]: 15 MG/KG BW 1 INJECTION/WK FOR 3 WK, Promoter: NONE USED) 4/15 (27%), 3/17 (18%), 33%, not significant; (Carcinogen: AZOXYMETHANE (25843-45-2), 500 PPM IN DIET FOR 4 WK, BEGINNING 1 WK BEFORE THE FIRST CARCINOGEN DOSE (STUDY DURATION: 38 WK), Route [Inhibitor]: ORAL, Species: RAT, Strain/Sex: F344/MALE, Target Tissue: Type of Lesion: SMALL INTESTINE: ADENOMA, Dose [Carcinogen]: 15 MG/KG BW 1 INJECTION/WK FOR 3 WK, Promoter: NONE USED) 1/15 (7%), 0/17 (0%), 100%, not significant. For the same compound, the “tumour outcome (control, treated, inhibition, significance)” value by setting is: (Carcinogen: AZOXYMETHANE (25843-45-2), 500 PPM IN DIET FOR 34 WK, BEGINNING 1 WK AFTER THE LAST CARCINOGEN DOSE (STUDY DURATION: 38 WK), Route [Inhibitor]: ORAL, Species: RAT, Strain/Sex: F344/MALE, Target Tissue: Type of Lesion: LARGE INTESTINE: ADENOCARCINOMA, Dose [Carcinogen]: 15 MG/KG BW 1 INJECTION/WK FOR 3 WK, Promoter: NONE USED) 9/15 (60%), 6/14 (43%), 28%, not significant; (Carcinogen: AZOXYMETHANE (25843-45-2), 500 PPM IN DIET FOR 34 WK, BEGINNING 1 WK AFTER THE LAST CARCINOGEN DOSE (STUDY DURATION: 38 WK), Route [Inhibitor]: ORAL, Species: RAT, Strain/Sex: F344/MALE, Target Tissue: Type of Lesion: LARGE INTESTINE: ADENOMA, Dose [Carcinogen]: 15 MG/KG BW 1 INJECTION/WK FOR 3 WK, Promoter: NONE USED) 4/15 (27%), 2/14 (14%), 48%, not significant; (Carcinogen: AZOXYMETHANE (25843-45-2), 500 PPM IN DIET FOR 34 WK, BEGINNING 1 WK AFTER THE LAST CARCINOGEN DOSE (STUDY DURATION: 38 WK), Route [Inhibitor]: ORAL, Species: RAT, Strain/Sex: F344/MALE, Target Tissue: Type of Lesion: SMALL INTESTINE: ADENOCARCINOMA, Dose [Carcinogen]: 15 MG/KG BW 1 INJECTION/WK FOR 3 WK, Promoter: NONE USED) 4/15 (27%), 3/14 (21%), 22%, not significant; (Carcinogen: AZOXYMETHANE (25843-45-2), 500 PPM IN DIET FOR 34 WK, BEGINNING 1 WK AFTER THE LAST CARCINOGEN DOSE (STUDY DURATION: 38 WK), Route [Inhibitor]: ORAL, Species: RAT, Strain/Sex: F344/MALE, Target Tissue: Type of Lesion: SMALL INTESTINE: ADENOMA, Dose [Carcinogen]: 15 MG/KG BW 1 INJECTION/WK FOR 3 WK, Promoter: NONE USED) 1/15 (7%), 0/14 (0%), 100%, not significant; (Carcinogen: BENZO[A]PYRENE, 50-32-8, 0.01% IN DIET BEGINNING 3 WK POST CARCINOGEN DOSE AND CONTINUING FOR 6 WK (STUDY DURATION: 9 WK), Route [Inhibitor]: ORAL, Species: MOUSE, Strain/Sex: SWISS/FEMALE, Target Tissue: Type of Lesion: LUNG: ADENOMA, Dose [Carcinogen]: 1 MG ONCE ADMINISTERED TO NEWBORN MICE, Promoter: NONE USED) 8/34 (24%), 4/30 (13%), 46%, p<0.05; (Carcinogen: BENZO[A]PYRENE, 50-32-8, 0.01% IN DIET BEGINNING 3 WK POST CARCINOGEN DOSE AND CONTINUING FOR 6 WK (STUDY DURATION: 9 WK), Route [Inhibitor]: ORAL, Species: MOUSE, Strain/Sex: SWISS/MALE, Target Tissue: Type of Lesion: LUNG: ADENOMA, Dose [Carcinogen]: 1 MG ONCE ADMINISTERED TO NEWBORN MICE, Promoter: NONE USED) 7/35 (20%), 3/34 (9%), 55%, p<0.01. Moreover, the “tumour outcome (control, treated, inhibition, significance)” value by setting is: (Carcinogen: BENZO[A]PYRENE, 50-32-8, 1 UMOL IN 0.2 ML ACETONE APPLIED 24 AND 1 HR PRIOR TO CARCINOGEN DOSE (STUDY DURATION: 22 WK), Route [Inhibitor]: DERMAL, Species: MOUSE, Strain/Sex: CD-1/FEMALE, Target Tissue: Type of Lesion: SKIN: TUMOR, Dose [Carcinogen]: 0.3 UMOL IN 0.2 ML ACETONE ONCE, Promoter: 12-O-TETRADECANOYLPHORBOL 13-ACETATE, 16561-29-8) 84%, 68%, 19%, not significant; (Carcinogen: N-METHYLNITROSOUREA, 684-93-5, DIETHYLNITROSAMINE, 55-18-5, N,N-DIBUTYLNITROS- AMINE, 924-16-3, Carcinogen: N-METHYLNITROSOUREA, 684-93-5, DIETHYLNITROSAMINE, 55-18-5, N,N-DIBUTYLNITROS- AMINE, 924-16-3, 0.01% IN DIET FOR 16 WK BEGINNING POST LAST CARCINOGEN DOSE (STUDY DURATION: 20 WK), Route [Inhibitor]: ORAL, Species: RAT, Strain/Sex: F344/MALE, Target Tissue: Type of Lesion: LUNG: ADENOMA, Dose [Carcinogen]: 100 MG/KG DIETHYLNITROSAMINE INTRAPERITONEAL ON D 1 THEN 200 MG/KG N-METHYLNITROSOUREA ON D 2, 5, 8, 11, AND 0.05% N,N-D) 9/16 (56%), 2/15 (13%), 77%, p<0.02; (Carcinogen: VINYL CARBAMATE, 15805-73-9, 2.5 UMOL IN 0.2 ML ACETONE ONCE 10 MIN PRIOR TO CARCINOGEN DOSE (STUDY DURATION: 22 WK), Route [Inhibitor]: DERMAL, Species: MOUSE, Strain/Sex: ICR/FEMALE, Target Tissue: Type of Lesion: SKIN: PAPILLOMA, Dose [Carcinogen]: 5.8 UMOL IN 0.2 ML ACETONE ONCE, Promoter: 12-O-TETRADECANOYLPHORBOL 13-ACETATE, 16561-29-8) 70%, 53%, 24%, not significant.
